Assay [1] has as its target T1, human recombinant TDO2 enzyme (Homo sapiens, UniProt P48775).
T1 construct: made in house
Put plainly: Assay for TDO2 enzymatic activity determination. The assay is classed as biochemical. The note with it: human recombinant TDO2, L-Trp 1 mM, kynurenine absorbance at 480 nm. How it is done:
To measure the TDO2 activity, the procedure described in Dolusic et al. J. Med. Chem.; 2011, 54, […] was adapted: the reaction mixture contained (final concentrations) potassium phosphate buffer (50 mM, pH 7.5), ascorbic acid (0.25 M), methylene blue (0.125 μM), catalase (40 units/mL, from bovine liver, Sigma), and human recombinant TDO2 enzyme (prepared as described in Dolusic et al. J. Med. Chem.; 2011, 54, 5320-5334; 0.9 μg) without or with the compounds of the present invention at the indicated concentrations (total volume 112.5 μL). The reaction was initiated by the addition of 37.5 μL of L-Trp (final concentration 1 mM) at room temperature. The reaction was conducted at room temperature during one hour and stopped by the addition of 30 μL of 30% (w/v) trichloroacetic acid.
To convert N-formylkynurenine into kynurenine, the reaction mixture was incubated at 65° C. for 30 min. Then 150 μL of the reaction mixture was mixed with 120 μL of 2.5% (w/v) 4-(dimethylamino)-benzaldehyde in acetic acid and incubated for 5 min at room temperature. Kynurenine concentrations were determined by measuring the absorbance at 480 nm. A standard curve was made with pure kynurenine. The TDO activity was measured as described above using ten serial concentrations of the compounds of the present invention. Data were fitted using the Prism™ software (GraphPad Software, Inc.) using standard parameters.

Assay [2] deals with T2, human glioblastoma A172 cells, naturally expressing hTDO2 (Homo sapiens, UniProt P48775).
T2 construct: human glioblastoma A172 cells, naturally expressing hTDO2; endogenous in cells; host or cells: human glioblastoma A172 cells (ATCC CRL-1620)
T2 sequence (P48775 whole entry): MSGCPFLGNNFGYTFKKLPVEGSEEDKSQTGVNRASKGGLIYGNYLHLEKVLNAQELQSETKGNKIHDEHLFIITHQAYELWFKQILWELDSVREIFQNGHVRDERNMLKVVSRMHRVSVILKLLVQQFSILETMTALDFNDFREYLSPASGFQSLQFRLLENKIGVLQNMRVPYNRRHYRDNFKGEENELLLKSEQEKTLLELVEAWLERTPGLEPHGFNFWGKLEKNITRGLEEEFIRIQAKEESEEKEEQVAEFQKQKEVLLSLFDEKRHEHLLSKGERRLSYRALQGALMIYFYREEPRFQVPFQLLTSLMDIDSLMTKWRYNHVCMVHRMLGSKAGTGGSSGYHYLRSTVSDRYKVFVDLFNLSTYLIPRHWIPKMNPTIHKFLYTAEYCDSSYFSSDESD
Description: Cellular assay for TDO2 activity, A172 cells. The assay is classed as cell-based. To be noted: overnight incubation, kynurenine in supernatant. How it is done: The compounds of formula I inhibit the activity of human TDO2 in cells that constitutively express TDO2, such as A172 cells. A172 is a cell line derived from human brain glioblastoma cells. The cells are available from the American Type Culture Collection (ATCC®) as CRL-1620™
The assay (adapted from Pilotte L et al., Proc Natl Acad Sci USA, 2012, 109(7), 2497-502) was performed in 96-well flat bottom plates seeded with human glioblastoma A172 cells, naturally expressing hTDO2 (prepared as described in Tilman et al., Mol Cancer, 2007, 17(6), 80), at a concentration of 1.25×10^4 cells/well in a final volume of 200 μL. To determine TDO, the cells were incubated overnight at 37° C. at 5% CO2 in IMDM (Invitrogen) supplemented with 2% FBS and 2% penicillin/streptomycin in the presence of the compounds of the present invention, at different concentrations.
The plates were then centrifuged 5 min at 1000 rpm, and 100 μL of the supernatant were collected in a conical plate, 30 uL of TCA 30% were added and a further centrifugated at 3000×g for 10 minutes. 100 μL of the supernatant were collected in a flat bottomed plate and 100 μL of 2% (w/v) 4-(dimethylamino)-benzaldehyde in acetic acid and incubated for 5 min at room temperature. Kynurenine concentrations were determined by measuring the absorbance at 480 nm. A standard curve was made with pure kynurenine. The TDO activity was measured as described above using ten serial concentrations of the compounds of the present invention. Data were fitted using the Prism™ software (GraphPad Software, Inc.) using standard parameters.

Where a name gives a salt, the structure may show the parent alone.

Broadly, the IC50 is the point on the concentration scale where inhibition reaches its midpoint.

T1 sequence (P48775 whole entry): as above

Turning to `CC(=O)N1CCC(n2ncc3cc(-c4c[nH]c5cc(F)ccc45)ccc32)CC1` [Compound 14, 1-(4-(5-(6-fluoro-1H-indol-3-yl)-1H-indazol-1-yl)piperidin-1-yl)ethanone], in assay [1], the IC50 is 2220 nM.

Consider `Nc1nc2ccc(-c3c[nH]c4cc(F)ccc34)cc2o1` [Compound 98, 6-(6-fluoro-1H-indol-3-yl)benzo[d]oxazol-2-amine], for which the IC50 in assay [2] is 293 nM; in assay [1], 489 nM.

Take `NC(=O)Cn1ncc2cc(-c3c[nH]c4cc(F)ccc34)ccc21` [Compound 9, 2-(5-(6-fluoro-1H-indol-3-yl)-1H-indazol-1-yl)acetamide]: the concentration for half-maximal inhibition (IC50) came to 147 nM in assay [2] and 645 nM in assay [1].

Turning to `CN(C)CCS(=O)(=O)NCc1nc2ccc(-c3c[nH]c4cc(F)ccc34)cc2o1` [Compound 100, 2-(dimethylamino)-N-((6-(6-fluoro-1H-indol-3-yl)benzo[d]oxazol-2-yl)methyl)ethanesulfonamide], the IC50 amounted to 345 nM in assay [2] and 1460 nM in assay [1].

Regarding `Fc1ccc2c(-c3ccc4cnn(C5CCNCC5)c4c3)c[nH]c2c1` [Compound 6, 6-(6-fluoro-1H-indol-3-yl)-1-(piperidin-4-yl)-1H-indazole], the IC50 in assay [1] worked out at 7530 nM.

For the molecule `CC(=O)N1CCC(Cn2cc3cc(-c4c[nH]c5cc(F)ccc45)ccc3n2)CC1` [Compound 21, 1-(4-((5-(6-fluoro-1H-indol-3-yl)-2H-indazol-2-yl)methyl)piperidin-1-yl)ethanone], the concentration for half-maximal inhibition (IC50) in assay [1] stood at 2670 nM.

Turning to `CC(=O)N1CCC(Cn2ncc3cc(-c4c[nH]c5cc(F)ccc45)ccc32)CC1` [Compound 11, 1-(4-((5-(6-fluoro-1H-indol-3-yl)-1H-indazol-1-yl)methyl)piperidin-1-yl)ethanone], the IC50 in assay [1] came to 680 nM.

For the molecule `Fc1ccc2c(-c3ccc4c(cnn4CC4CCNCC4)c3)c[nH]c2c1` [Compound 10, 5-(6-fluoro-1H-indol-3-yl)-1-(piperidin-4-ylmethyl)-1H-indazole], the IC50 in assay [1] was 427 nM.

As to `Fc1ccc2c(-c3ccc4[nH]ncc4c3)c[nH]c2c1` [Compound 8, 5-(6-fluoro-1H-indol-3-yl)-1H-indazole], the IC50 in assay [1] came to 609 nM.

With `CS(=O)(=O)N1CCC(c2nc3ccc(-c4c[nH]c5cc(F)ccc45)cc3o2)CC1` [Compound 96, 6-(6-fluoro-1H-indol-3-yl)-2-(1-(methylsulfonyl)piperidin-4-yl)benzo[d]oxazole], the 50% inhibitory concentration (IC50) in assay [2] amounted to 589 nM; in assay [1], 2390 nM.

In the case of `O=S(=O)(CCN1CCCC1)NCc1nc2ccc(-c3c[nH]c4cc(F)ccc34)cc2o1` [Compound 124, N-((6-(6-fluoro-1H-indol-3-yl)benzo[d]oxazol-2-yl)methyl)-2-(pyrrolidin-1-yl)ethanesulfonamide], the concentration for half-maximal inhibition (IC50) in assay [2] was determined as 334 nM; in assay [1] it was 1210 nM.

In the case of `O=S(=O)(CCN1CCNCC1)NCc1nc2ccc(-c3c[nH]c4cc(F)ccc34)cc2o1` [Compound 123, N-((6-(6-fluoro-1H-indol-3-yl)benzo[d]oxazol-2-yl)methyl)-2-(piperazin-1-yl)ethanesulfonamide], the values for the IC50 in assay [2] and in assay [1] were 498 nM and 1360 nM, respectively.

Consider `CC(=O)N1CCC(Cn2cc3ccc(-c4c[nH]c5cc(F)ccc45)cc3n2)CC1` [Compound 16, 1-(4-((6-(6-fluoro-1H-indol-3-yl)-2H-indazol-2-yl)methyl)piperidin-1-yl)ethanone], for which the IC50 in assay [1] was determined as 1990 nM.

Consider `Fc1ccc2c(-c3ccc4cn(C5CCNCC5)nc4c3)c[nH]c2c1` [Compound 18, 6-(6-fluoro-1H-indol-3-yl)-2-(piperidin-4-yl)-2H-indazole], for which, in assay [1], the 50% inhibitory concentration (IC50) was determined as 948 nM.

Consider `NC(=O)Cn1cc2ccc(-c3c[nH]c4cc(F)ccc34)cc2n1` [Compound 15, 2-(6-(6-fluoro-1H-indol-3-yl)-2H-indazol-2-yl)acetamide], for which, in assay [1], the concentration for half-maximal inhibition (IC50) was 1160 nM.

Regarding `Fc1ccc2c(-c3ccc4nn(C5CCNCC5)cc4c3)c[nH]c2c1` [Compound 23, 5-(6-fluoro-1H-indol-3-yl)-2-(piperidin-4-yl)-2H-indazole], in assay [1], the half-maximal inhibitory concentration (IC50) stood at 322 nM.

As to `NC(=O)CCn1ncc2ccc(-c3c[nH]c4cc(F)ccc34)cc21` [Compound 5, 3-(6-(6-fluoro-1H-indol-3-yl)-1H-indazol-1-yl)propanamide], the 50% inhibitory concentration (IC50) in assay [1] was determined as 1170 nM.

For the molecule `Fc1ccc2c(-c3ccc4cnn(CC5CCNCC5)c4c3)c[nH]c2c1` [Compound 3, 6-(6-fluoro-1H-indol-3-yl)-1-(piperidin-4-ylmethyl)-1H-indazole hydrochloride], the 50% inhibitory concentration (IC50) in assay [1] was 2120 nM.

In the case of `Fc1ccc2c(-c3ccc4c(cnn4C4CCNCC4)c3)c[nH]c2c1` [Compound 13, 5-(6-fluoro-1H-indol-3-yl)-1-(piperidin-4-yl)-1H-indazole], the concentration for half-maximal inhibition (IC50) in assay [1] was found to be 407 nM.

For the molecule `NC(=O)CCn1cc2ccc(-c3c[nH]c4cc(F)ccc34)cc2n1` [Compound 17, 3-(6-(6-fluoro-1H-indol-3-yl)-2H-indazol-2-yl)propanamide], in assay [1], the IC50 worked out at 935 nM.

For the molecule `CC(=O)N1CCC(n2cc3cc(-c4c[nH]c5cc(F)ccc45)ccc3n2)CC1` [Compound 24, 1-(4-(5-(6-fluoro-1H-indol-3-yl)-2H-indazol-2-yl)piperidin-1-yl)ethanone], the IC50 in assay [1] stood at 924 nM.

On to `CC(=O)N1CCC(Cn2ncc3ccc(-c4c[nH]c5cc(F)ccc45)cc32)CC1` [Compound 4, 1-(4-((6-(6-fluoro-1H-indol-3-yl)-1H-indazol-1-yl)methyl)piperidin-1-yl)ethanone], for which the IC50 in assay [1] amounted to 3180 nM.

For the molecule `CC(=O)N1CCC(n2cc3ccc(-c4c[nH]c5cc(F)ccc45)cc3n2)CC1` [Compound 19, 1-(4-(6-(6-fluoro-1H-indol-3-yl)-2H-indazol-2-yl)piperidin-1-yl)ethanone], the IC50 in assay [1] was found to be 2190 nM.

As for `NC(=O)CCc1nc2cc(-c3c[nH]c4cc(F)ccc34)ccc2[nH]1` [Compound 46, 3-(5-(6-fluoro-1H-indol-3-yl)-1H-benzo[d]imidazol-2-yl)propanamide], the half-inhibitory concentration (IC50) in assay [1] worked out at 1330 nM.

Turning to `CC(=O)N1CCC(n2ncc3ccc(-c4c[nH]c5cc(F)ccc45)cc32)CC1` [Compound 7, 1-(4-(6-(6-fluoro-1H-indol-3-yl)-1H-indazol-1-yl)piperidin-1-yl)ethanone], the concentration for half-maximal inhibition (IC50) in assay [1] amounted to 13800 nM.

On to `NC(=O)Cn1ncc2ccc(-c3c[nH]c4cc(F)ccc34)cc21` [Compound 2, 2-(6-(6-fluoro-1H-indol-3-yl)-1H-indazol-1-yl)acetamide], for which, in assay [1], the concentration for half-maximal inhibition (IC50) turned out to be 946 nM.

`Fc1ccc2c(-c3ccc4[nH]cnc4c3)c[nH]c2c1` [Compound 25, 5-(6-fluoro-1H-indol-3-yl)-1H-benzo[d]imidazole]: the IC50 in assay [1] is 188 nM.

Molecule `Fc1ccc2c(-c3ccc4nc(S)oc4c3)c[nH]c2c1` [Compound 112, 6-(6-fluoro-1H-indol-3-yl)benzo[d]oxazole-2-thiol] returned a 50% inhibitory concentration (IC50) in assay [2] of 979 nM.

In turn, `Cc1nc2cc(CO)c(-c3c[nH]c4cc(F)ccc34)cc2o1` [Compound 137, (6-(6-fluoro-1H-indol-3-yl)-2-methylbenzo[d]oxazol-5-yl)methanol] registered a half-inhibitory concentration (IC50) in assay [2] of 30700 nM.

In assay [2], `NCc1nc2cc(-c3c[nH]c4cc(F)ccc34)ccc2o1` [Compound 81, (5-(6-fluoro-1H-indol-3-yl)benzo[d]oxazol-2-yl)methanamine] registered an IC50 of 1620 nM.

The molecule `CN1CCN(C(=O)CCn2ncc3cc(-c4c[nH]c5cc(F)ccc45)ccc32)CC1` [Compound 87, 3-(5-(6-fluoro-1H-indol-3-yl)-1H-indazol-1-yl)-1-(4-methylpiperazin-1-yl)propan-1-one] had a concentration for half-maximal inhibition (IC50) in assay [2] of 298 nM.

In the case of `C[C@H]1CN(CCc2nc3ccc(-c4c[nH]c5cc(F)ccc45)cc3o2)C[C@H](C)N1` [Compound 144, (−)-2-(2-((3S,5S)-3,5-dimethylpiperazin-1-yl)ethyl)-6-(6-fluoro-1H-indol-3-yl)benzo[d]oxazole], the half-inhibitory concentration (IC50) in assay [2] is 460 nM.

(Values after patent US20150266857A1, “NOVEL 3-INDOL SUBSTITUTED DERIVATIVES, PHARMACEUTICAL COMPOSITIONS AND METHODS FOR USE” (iTeos Therapeutics, priority 2014, published 2015).)
